# From patent US20220091133A1, “METHODS AND ASSAYS FOR IMMUNE PHENOTYPING” (Washington University, priority 2020, published 2022)
# Columns and labels:
# [1] = tested on: PBMCs (T cell IFN-γ production); assay type: cell-based, human
# [2] = tested on: diluted whole blood (T cell IFN-γ production); assay: Whole blood ELISpot, CD3/CD28-stimulated IFN-γ production (Example 2); assay type: cell-based, human
# Method: Innate and adaptive immune function was assessed using ELISpot analysis by measurement of the production of IFN-γ and TNF-α in ex vivo-stimulated cells following overnight culture. Capture Ab precoated 96-well polyvinylidene difluoride-backed strip plates were used for single color enzymatic assays (ImmunoSpot; Cellular Technology [CTL], Cleveland, Ohio) for detection of human IFN-γ and TNF-α. ELISpot culture procedure was followed as directed using instructions from the ELISpot kit. Samples were run in duplicate for each test condition. Plates were prepared with stimulant and were incubated at 37° C. and 5% CO2 for 30 min prior to plating cells. Identical conditions were prepared for comparison of whole blood assay to PBMC assay, and culture media alone was used as a negative control. Combination of 500 ng/ml of anti-CD3 (clone HIT3a; BioLegend) with 2.5 μg/ml of anti-CD28 (clone CD28.2; BioLegend) Abs were used to induce IFN-γ, and 2.5 ng/ml LPS (from Salmonella abortus equi S-form, ALX-581-009; Enzo Life Sciences, Farmingdale, N.Y.) was used to induce TNF-α wells. Total well volume for all samples was 200 μl. PBMCs were plated into wells in quantities of 2.5×10^4 cells per well for IFN-γ and 2.5×10^3 cells per well for TNF-α. The relevant volume for 5×10^4 leukocytes of diluted whole blood (in culture media) was plated in each well based on complete blood counts performed in the clinical research core laboratory at Washington University. PBMCs and diluted whole blood were costimulated with and without recombinant human IL-7 (Escherichia coli-derived protein, product no. 207-IL; R&D Systems, Minneapolis, Minn.). ELISpot assays were incubated overnight for 18-22 h at 37° C. and 5% CO2 as previously described (29). […]
# (§1) Samples were scanned, analyzed, and quality controlled for spot count, spot area, and TWI using a Cellular Technology series 6 ImmunoSpot Universal Analyzer with ImmunoSpot 7.0 professional software (Cellular Technology Analyzers, Shaker Heights, Ohio). […]
# (§2) The number of cytokine-secreting cells present in each ELISpot well is referred to as spot-forming units (SFU) and is reported in two distinct ways. […] The number of lymphocytes in each well was determined based upon the absolute lymphocyte count as measured by the patients' complete blood count. For ELISpot studies involving PBMCs, flow cytometry was performed on the PBMC fraction, and the number of lymphocytes, monocytes, and residual neutrophils were determined. […] Samples were acquired on FACScan (Becton Dickenson, Franklin Lakes, N.J.) with a five-color modification (CyTek Biosciences, Fremont, Calif.) and analyzed using FlowJo 10.2 (FlowJo, Ashland, Oreg.) as previously described (28). […]
# [3] = tested on: diluted whole blood (myeloid cell TNF-α production); assay: Whole blood ELISpot, LPS-stimulated TNF-α production (Example 2); assay type: cell-based, human
# Method: Innate and adaptive immune function was assessed using ELISpot analysis by measurement of the production of IFN-γ and TNF-α in ex vivo-stimulated cells following overnight culture. Capture Ab precoated 96-well polyvinylidene difluoride-backed strip plates were used for single color enzymatic assays (ImmunoSpot; Cellular Technology [CTL], Cleveland, Ohio) for detection of human IFN-γ and TNF-α. ELISpot culture procedure was followed as directed using instructions from the ELISpot kit. Samples were run in duplicate for each test condition. Plates were prepared with stimulant and were incubated at 37° C. and 5% CO2 for 30 min prior to plating cells. Identical conditions were prepared for comparison of whole blood assay to PBMC assay, and culture media alone was used as a negative control. […] PBMCs were plated into wells in quantities of 2.5×10^4 cells per well for IFN-γ and 2.5×10^3 cells per well for TNF-α. […]
# as §1, §2
# [4] = tested on: pSTAT5 in CD4 and CD8 T cells; assay: Mass cytometry (CyTOF) of intracellular phospho-STAT5 in T cells; assay type: in vivo, human
# From the text: To measure the specific molecular effects underlying the increased T cell responsiveness induced by IL-7, we measured intracellular levels of phospho-STATS (pSTAT5) in CD4 and CD8 T cells using mass cytometry. STATS is the primary T cell differentiation signal downstream of the IL-7 receptor [12]. T cells were identified based on surface marker staining (CD45+/CD15−/CD66b−/CD56−/CD3+). We then measured the pSTAT5 signal intensity. IL-7 was associated with a 3-fold increase in activated STATS in CD4-T cells and a 2-fold increase in CD8-T cells (FIG. 28C).
# [5] = tested on: peripheral blood mononuclear cells (T cell IFN-γ production); assay type: cell-based, human
# [6] = Serial plasma cytokines, ProcartaPlex 9-plex Luminex panel (Example 5); assay type: in vivo, human; conditions: plasma of critically ill COVID-19 patient
# [7] = tested on: PBMCs (T cell IFN-γ production); conditions: critically ill COVID 19 disease patients, reference 18; cited from earlier work
# fungal sepsis = conditions: in vivo; cited from earlier work
substance,measurement,setting,value
"IL-7: recombinant human IL-7, immunoadjuvant and potent T cell activator; R&D Systems ex vivo, RevImmune for patients",mean number of IFN-γ-producing T cells following ex vivo administration of IL-7,"[1]; COVID-19 patient PBMCs, anti-CD3/anti-CD28 + IL-7 50 ng/mL overnight, control without IL-7 101±21, P<0.0001",201±36
same,increase of IFN-γ production of stimulated T cells by ex vivo IL-7,"[1]; COVID-19 patients, ELISpot",~2 fold
same,effect of IL-7 to increase the number of IFN-γ-producing T cells,[1]; septic and CINS patients,also observed
same,effect of IL-7 on IFN-γ SFUs,[2]; healthy subjects and CINS patients,significantly increased
same,increase in IFN-γ spot numbers with IL-7,[2]; sepsis nonsurvivors,312%±240
same,increase in IFN-γ spot numbers with IL-7,[2]; sepsis survivors,102%±32
same,increase in the number of IFN-γ spots when stimulated with IL-7,"[2]; septic patients overall (n=19), CD3/CD28 + IL-7, p<0.005",172%±77
same,change in TNF-α SFUs with IL-7,[3]; CINS,no change
same,change in TNF-α SFUs with IL-7,"[3]; healthy subjects, p<0.01",significant decrease
same,effect of IL-7 on the number of TNF-α-producing cells,"[3]; septic patients, LPS + IL-7",does not increase
same,increase in activated STAT5 (pSTAT5 signal intensity),[4]; CD4-T cells,3 fold
same,increase in activated STAT5 (pSTAT5 signal intensity),[4]; CD8-T cells,2 fold
same,STAT5 expression in lymphocytes after initiation of IL-7 compared with pretreatment,"[4]; CyTOF, geometric mean raw signal intensity",doubling
same,T cell function on coincubation with both dexamethasone and IL-7,[5],restored
same,IFN-γ plasma concentration,"[6]; Post IL-7, Day 12",Undetectable
same,IL-1β plasma concentration,"[6]; Post IL-7, Day 12",Undetectable
same,IL-2 plasma concentration,"[6]; Post IL-7, Day 12",Undetectable
same,IL-6 plasma concentration,"[6]; Post IL-7, Day 12",30 pg/mL
same,IL-10 plasma concentration,"[6]; Post IL-7, Day 12",2.71 pg/mL
same,IL-12 plasma concentration,"[6]; Post IL-7, Day 12",Undetectable
same,IL-17 plasma concentration,"[6]; Post IL-7, Day 12",0.14 pg/mL
same,Tumor necrosis factor-α plasma concentration,"[6]; Post IL-7, Day 12",Undetectable
same,IFN-γ plasma concentration,"[6]; Post IL-7, Day 21",Undetectable
same,IL-1β plasma concentration,"[6]; Post IL-7, Day 21",Undetectable
same,IL-2 plasma concentration,"[6]; Post IL-7, Day 21",Undetectable
same,IL-6 plasma concentration,"[6]; Post IL-7, Day 21",6 pg/mL
same,IL-10 plasma concentration,"[6]; Post IL-7, Day 21",0.83 pg/mL
same,IL-12 plasma concentration,"[6]; Post IL-7, Day 21",Undetectable
same,IL-17 plasma concentration,"[6]; Post IL-7, Day 21",0.12 pg/mL
same,Tumor necrosis factor-α plasma concentration,"[6]; Post IL-7, Day 21",Undetectable
same,lymphocyte IFN-γ production on ex vivo addition of IL-7 to PBMCs,[7],doubled
same,increase of absolute lymphocyte count (ALC),SARS-CoV-2; COVID-19 patient after IL-7,~10 fold
same,"discharged home, day of hospitalization",SARS-CoV-2; after IL-7 therapy,24 days
same,"mechanical ventilation discontinued, day after ICU admission",SARS-CoV-2; after initiation of IL-7 therapy,15 days
same,survival in a 2-hit animal model of fungal sepsis,fungal sepsis,increase survival
